The numbers were not newly measured in US9895393B2, “Topical formulations for increasing the dermal concentration of hyaluronic acid” (SHAMROC, INC., priority 2012, dated 2018), which cites them from elsewhere.

Peptide text beside a SMILES is read from it. * marks the point of attachment. Palmitoyl = CCCCCCCCCCCCCCCC(=O)*

One series has as its system skin. Particulars: Studies have shown.

For `CCCCCCCCCCCCCCCC(=O)N[C@@H](CCCCN)C(=O)N[C@H](C(=O)N[C@@H](CCCCN)C(=O)O)C(C)C.O=C(O)C(F)(F)F.O=C(O)C(F)(F)F` [palmitoyl-lysyl-valyl-lysine bistrifluoroacetate] (Palmitoyl-Lys-Val-Lys-OH), the collagen synthesis result with human fibroblasts is “stimulates collagen synthesis”.
Regarding `CCCCCCCCC(CCCCCC)C(=O)OC[C@H](OC(=O)C(CCCCCC)CCCCCCCC)[C@H]1OC(=O)C(OC(=O)C(CCCCCC)CCCCCCCC)=C1OC(=O)C(CCCCCC)CCCCCCCC` (stereo partly shown) [tetrahexyldecyl ascorbate], in the series on skin, the collagen production result is “stimulate collagen production” and the “melanogenesis (the production of pigment)” value is on record as “inhibiting melanogenesis”. In the series with lipid peroxidation, the anti-oxidant activity entry is listed as “inhibiting lipid peroxidation”.
